Measurements as given in US20140343145A1, “RBP1 as a Molecular Biomarker for Predicting Survival and Response to Treatment in Glioma” (The Regents of the University of California, priority 2011, published 2014).
Entries after “also recorded” stand apart in the source; their conditions may differ.

Tests used:
[1] = tested on: primary glioblastoma multiforme patients; experiment: Kaplan-Meier analysis of overall survival in the GBM Survival Cohort (124 primary glioblastoma patients) by RBP1 methylation and isotretinoin treatment; assay type: in vivo, human
Excerpt: FIGS. 10A-10B show the Kaplan-Meier analysis of overall survival (OS) in a cohort of 124 primary glioblastoma mulitforme patients with respect to RBP1 methylation and isotretinoin (ITR) treatment. FIG. 10A provides RBP1-unmethylated patients treated (solid, n=19) vs untreated with isotretinoin (dotted, n=83). FIG. 10B provides RBP1-methylated patients treated (solid, n=7) and untreated with isotretinoin (dotted, n=15). RBP1=retinol binding protein 1; WT=wild-type; MUT=mutant; ITR=isotretinoin.
Within the 198-patient Total Cohort, 124 samples that were obtained from treatment-naïve primary GBM patients with detailed clinical information were retrospectively identified. Patients were treated with a combination of radiation (RT) and temozolomide (TMZ) after surgical resection (Stupp R, et al. N Engl J Med 2005; 352(10):987-96). Overall survival (OS) was defined as the date of diagnosis to date of death from any cause. For patients lost to follow-up without obtainable date of death, censoring date was last clinic visit or contact. If the last clinic or contact was after the Sep. 9, 2011 freeze date, the patient was censored at […]. […]
Correlation between IDH1 mutation and RBP1 methylation was determined using the Spearman correlation test. […]

[2] = tested on: patients with primary glioblastoma; experiment: Kaplan-Meier analysis of overall survival in a preliminary cohort of 414 primary glioblastoma patients, with or without upfront isotretinoin; assay type: in vivo, human
Method: Survival for an unpublished preliminary cohort of 414 patients with primary glioblastoma were analyzed with Kaplan-Meier analysis. Survival curves for patients with wild-type or IDH1/2 mutant genotypes with or without upfront treatment with isotretinoin, in combination with standard-of-care debulking surgery, temozolomide, and radiation therapy, are shown. […] WT=wild-type, MUT=IDH1 MUT, ITR=isotretinoin (13-cis retinoic acid).
Specifically, the median overall survival for IDH1 mutant glioblastoma patients treated with isotretinoin was 81 months as compared with 36 months for similar IDH1 mutant glioblastoma patients who were not treated with isotretinoin. […] Therefore, in some embodiments, the present invention is directed to methods of treating IDH1/IDH2 mutant gliomas in subjects, which comprise administering to the subjects having been diagnosed with an IDH1 and/or an IDH2 mutation and/or RBP1 promoter hypermethylation one or more retinoids.

[3] = tested on: unselected glioma patients; conditions: patients not selected for any biomarker/mutation (Yung 1996); cited from earlier work

Compound: CC1=C(/C=C/C(C)=C/C=C/C(C)=C\C(=O)O)C(C)(C)CCC1 [isotretinoin, 13-cis retinoic acid]
- median OS (overall survival) ([1]; RBP1-methylated primary GBM patients who received isotretinoin (n=7), untreated 36.7 months, P=0.53): 82.5 months
- median OS (overall survival) ([1]; RBP1-unmethylated primary GBM patients who received adjuvant isotretinoin with temozolomide (n=19), untreated 19.8 months, P=0.25): 22.0 months
- median overall survival ([2]; IDH1 mutant glioblastoma patients treated with isotretinoin, 36 months for similar patients not treated): 81 months
- effect on overall survival, IDH1/IDH2 mutant glioblastoma ([2]; upfront isotretinoin with standard-of-care debulking surgery, temozolomide and radiation, patients with IDH1 or IDH2 mutant glioblastoma): significantly improve the overall survival; also recorded: significantly increased overall survival
- effect on overall survival, wild-type tumors ([2]; upfront isotretinoin with standard-of-care debulking surgery, temozolomide and radiation, patients with wild-type tumors (WT)): only modest increase in overall survival
- efficacy in unselected glioma patients [3]: little to only modest efficacy
